Data: patent US6733779B2, “Method of treating benign prostatic hyperplasia and other benign prostate conditions” (priority 1999, dated 2004)

Columns and labels:
[1] = system: benign prostatic hyperplasia; experiment: Clinical treatment of patients with benign prostatic hyperplasia / benign prostate conditions: symptoms and prostate size; type: in vivo, human
[2] = system: prostate specific antigen (PSA); experiment: Blood PSA level of patients treated orally with Accutane; type: in vivo, human
[3] = Side effects observed in the treated patients (informal trials)
Description: The treatment method involves essentially two periods: an initial treatment, and a sustaining treatment. First, in the initial treatment the patients orally administrate an initial dosage about 40 mg of 13-cis-retinoic acid daily for a period from about ten days to about twenty days. Thereafter, the patients orally administrate a sustaining dosage about 40 mg of 13-cis-retinoic acid about every five to seven days in a sustaining period. Typically, the sustaining period is about one year. However, it can be extended longer if extended maintenance is needed.
In the initial treatment, 40 mg of 13-cis-retinoic acid can be administrated in a single dose, or divided doses. […] The patients can either take one 40 mg capsule, or take two 20 mg capsules daily. The same applies to the dosage in the sustaining treatment. For convenience, the patients can take one 40 mg dose every five to seven days.
The initial dosage of about 40 mg 13-cis-retinoic acid daily is determined based on average men's body weight of about 160 lbs, i.e. at about 0.25 mg/lb of body weight. For patients who weigh substantially above or less than the average body weight, the dosage described above can be adjusted accordingly. The same principle applies to the sustaining dosage.

[4] = patients of the informal trials

CC1=C(/C=C/C(C)=C/C=C/C(C)=C\C(=O)O)C(C)(C)CCC1 [Accutane, 13-cis retinoic acid]
symptoms ([1]; Example 1 patient, prostatic enlargement and attenuated urine stream, 40 mg for 14 days, then 40 mg every 5 days): improved steadily
palpable size of prostate ([1]; Example 1 patient, 40 mg for 14 days, then 40 mg every 5 days): decreased in palpable size
symptoms ([1]; Example 2 patient, prostatic enlargement, decreasing urine flow, urgency, nocturia): steady improvement in symptoms
symptoms ([1]; Example 3 patient, chronic prostatitis, after the initial treatment, remained so during the sustaining period): rapidly became symptom free
symptoms ([1]; Example 4 patient, enlarged prostate, urinary tenesmus): readily improved
prostate enlargement ([1]; approximately twelve patients, by examination and the patients' own anecdotal comments): a reduction in prostate enlargement was confirmed
worsening of condition (PSA or hyperplasia), progression to malignancy [1, 4]: none of the conditions of these patients worsened
PSA after treatment ([2]; Example 1 patient, PSA 4 before, 40 mg orally for 14 days, then 40 mg every 5 days for about one year): less than one
PSA after treatment ([2]; Example 2 patient, PSA 3 before, after 6 months, 40 mg for 14 days, then 40 mg every 5 days): less than one
PSA after treatment ([2]; Example 3 patient, chronic posttraumatic prostatitis, PSA 5 before, 40 mg daily for 14 days, then 40 mg every 5 days): less than 1
PSA after treatment ([2]; Example 4 patient, PSA 4 before, within 6 months, 40 mg per day for 14 days, then 40 mg every 5 days): less than 1
blood chemistries ([3]; Example 1 patient, on sustaining dosage of 40 mg every 5 days): remained normal
adverse side effects ([3]; Example 1 patient, soreness subsided slowly after the sustaining dose was instituted): drying of lips and some musculo-skeletal soreness at sites of old injuries to the fingers and neck
adverse side effects ([3]; Example 2 patient): No adverse side effects were observed
serious adverse side effects or contra-indications [3, 4]: no serious adverse side effects or contra-indications of any kind were observed
